Measurements reported in patent publication US20250170151A1 (REMEDY PHARMACEUTICALS, INC., priority 2022, published 2025).
In brackets after ≈: the same amount, converted by molar mass. Read-outs that look alike come from different tables or passages of the source.

Legend:
physchem = assay: physchem
Description: An additional critical requirement was that, after reconstitution, the reconstituted formulation must remain sufficiently stable and soluble.
The vial pH after reconstitution (20 ml) can be used to ensure that the appropriate compounding pH was achieved during manufacture. The target reconstitution pH is 9.8 with a range of 9.2-10.2. In some aspects, the concentration after reconstitution is 0.3 mg/ml (6 mg/20 ml).

[1] = Glyburide solubility in intravenous dosing solutions; type: physicochemical
[2] = Mock IV infusion: sorption of glyburide to administration sets; type: physicochemical; conditions: for initial drop in the glyburide concentration: PVC administration sets
Text: Thus, there was significant unpredictability in how much of the drug product would be administered to a given patient at any given time depending on various factors. […] At lower NaOH:GLY ratios, a longer period of time is required for the drug concentration to recover.

[3] = Stability of glyburide after reconstitution with Tris buffer, HPLC (Example 6); type: physicochemical; conditions: for Glyburide content (mg/mL) at T0 h / Glyburide content (mg/mL) at T2 h / Glyburide content (mg/mL) at T24 h: +50% excess NaOH, 0.22 um filtered, HPLC; for Recon vial pH: lyophilized formulation +50% excess NaOH
Description: The contents of the vial were dissolved by gentle shaking and pH after reconstitution was measured. About 1 mL of sample was withdrawn at 0, 1, 2 and 24 hours post reconstitution and filtered through 0.22 um membrane filters and analyzed by HPLC.

[4] = Studies with phosphate and glycine buffering agents (Example 3); type: physicochemical; conditions: buffering agents phosphate (pKa 7.21) and glycine (pKa 9.8)
Text: For example, and without limiting the foregoing disclosure, the buffering agent may be Tris, lysine, arginine, an ethylenediamine, an imidazole, a 4-(2-Hydroxyethyl)morpholine, a triethanolamine, a glucamine, a deanol (dimethylaminoethanol), phosphate, phosphate buffered saline (PBS), or a combination thereof.

[5] = aqueous buffer, cited from earlier work
[6] = cited from earlier work
[7] = Drug reconstitution and dilution experiments (Example 2); conditions: vial reconstitution pH above 10.2; 6 mg vial, 20 ml WFI, 500 ml saline bag
[8] = recon diluent 10 mM tris pH 7.99
[9] = recon diluent 10 mM tris pH 8.25

Structure (SMILES): COc1ccc(Cl)cc1C(=O)NCCc1ccc(S(=O)(=O)NC(=O)NC2CCCCC2)cc1 [glyburide, 5-chloro-N-(4-[N-(cyclohexylcarbamoyl)sulfamoyl]phenethyl)-2-methoxybenzamide]
- Solubility (physchem; pH 9.25, aqueous buffer): 480 µg/mL (≈ 972 µM)
- Solubility (physchem; pH 9.37, aqueous buffer): 720 µg/mL (≈ 1460 µM)
- Solubility ([1]; formulations of the present disclosure): > 15 µg/mL
- Solubility ([1]; prior art intravenous glyburide dosing solutions): < 5.7 µg/mL
- pH in the final dosing solution ([2]; drug product with NaOH:GLY molar ratio of 13.8 reconstituted into saline with a pH of 7): 9.9
- drug sorption to administration components made of PVC or PUR ([2]; formulation of the present disclosure with the specific buffering agents): eliminated
- dip in glyburide concentration ([2]; formulations of the present disclosure, diluted (final dosing) pH less than 7.8, PVC administration sets (FIG. 3)): at least 10%
- initial drop in the glyburide concentration ([2]; prior art formulation, NaOH:GLY ratio 3:1, 1 L saline bag): about 40%
- initial drop in the glyburide concentration ([2]; prior art formulations with varying NaOH:GLY molar ratios, 1 L saline bag): at least 10%
- pH of reconstituted formulation ([2]; prior art glyburide formulations with sufficiently high base to glyburide ratios): ~10
- sorption in mock infusion test (FIG. 1) ([2]; prior art glyburide formulations, various administration materials): significant sorption immediately at the start of infusion
- binding to filter components ([2]; prior art intravenous glyburide formulations, all filter components (data not shown)): readily and extensively binds to all filter components
- Glyburide content (mg/mL) at T0 h [3, 8]: 0.29 mg/mL
- Glyburide content (mg/mL) at T2 h [3, 8]: 0.29 mg/mL
- Glyburide content (mg/mL) at T24 h [3, 8]: 0.29 mg/mL
- Glyburide content (mg/mL) at T0 h [3, 9]: 0.29 mg/mL
- Glyburide content (mg/mL) at T2 h [3, 9]: 0.29 mg/mL
- Glyburide content (mg/mL) at T24 h [3, 9]: 0.29 mg/mL
- Recon vial pH ([3]; recon diluent 20 mL 10 mM tris pH 7.99): 8.65
- Recon vial pH ([3]; recon diluent 20 mL 10 mM tris pH 8.25): 8.78
- precipitation of glyburide after reconstitution ([3]; recon pH of 8.65 and 8.78, through 24 hours): No precipitation
- prevention of sorption to medical materials by buffering agent [4]: did not prevent sorption to medical materials
- stabilization of glyburide by buffering agent [4]: did not effectively stabilize glyburide
- Solubility ([5]; pH 2, 37° C.): 0.07 µg/mL (≈ 0.142 µM)
- Solubility ([5]; pH 3, 37° C.): 0.06 µg/mL (≈ 0.121 µM)
- Solubility ([5]; pH 5, 37° C.): 0.1 µg/mL (≈ 0.202 µM)
- Solubility ([5]; pH 6, 37° C.): 0.62 µg/mL (≈ 1.26 µM)
- Solubility ([5]; pH 7, 37° C.): 5.62 µg/mL (≈ 11.4 µM)
- Solubility ([5]; pH 8, 37° C.): 51.2 µg/mL (≈ 104 µM)
- Solubility ([5]; pH 9, 37° C.): 98.6 µg/mL (≈ 200 µM)
- Solubility ([5]; pH 11.8, 37° C.): 531.6 µg/mL (≈ 1080 µM)
- Solubility ([6]; all measured pH values from pH 4 to pH 9, Britton-Robinson buffer): below 1 mg/mL
- Solubility ([6]; pH 4, 27° C., Britton-Robinson buffer): 4 µg/mL (≈ 8.1 µM)
- Solubility ([6]; pH 6, 27° C., Britton-Robinson buffer): 5 µg/mL (≈ 10.1 µM)
- Solubility ([6]; pH 7, 27° C., Britton-Robinson buffer): 11 µg/mL (≈ 22.3 µM)
- Solubility ([6]; pH 8, 27° C., Britton-Robinson buffer): 80 µg/mL (≈ 162 µM)
- Solubility ([6]; pH 9, 27° C., Britton-Robinson buffer): 600 µg/mL (≈ 1210 µM)
- final IV bag pH [7]: greater than 9.2
